Test results published in patent US20240122179A1, “AUXINIC HERBICIDES AND METHODS OF USE THEREOF” (CORTEVA AGRISCIENCE LLC, priority 2021, published 2024).

What was measured:
Assay in all cases: Postemergence herbicide evaluation, percent reduction in plant size vs untreated control, 21 days after treatment
[1] = tested on: Conyza canadensis (L.) (ERICA); assay type: in vivo, Conyza canadensis (L.) (Horseweed); conditions: Erigeron canadensis, post-emergence, 504 h, ERICA, postemergence, percent reduction vs untreated control, 21 days after treatment, read-out: Control/Injury; for pest or weed control at 140 g/ha: rate 140 g ae/ha; for pest or weed control at 280 g/ha: rate 280 g ae/ha
Protocol: (§1) Plants were grown in a soil media composed of 90% by volume Promix BX (Premier Tech Horticulture, Quakertown, PA) and 10% Profile Greens Grade (Profile Products LLC, Buffalo Grove, IL). Promix BX contains approximately 83% Sphagnum Peat Moss, 13% Perlite, 5% vermiculite, and proprietary amounts of limestone, starter fertilizer, and wetting agent. Profile Greens Grade is a sand-sized granule formed from calcining illite and montmorillonite clay. Several seeds of each species were planted in 10 cm square pots and top watered twice daily. Plant material was propagated in a warm greenhouse with temperature ranging from 25 to 28° C. and 50 to 60% relative humidity at the Corteva Global Headquarters (Indianapolis, Indiana, USA). Natural light was supplemented with 1000-watt metal halide overhead lamps with an average illumination of 500 μE m^−2 s^−1 photosynthetic active radiation for 16 consecutive hours each day. Plants were top-watered prior to herbicide application and sub-watered after herbicide application.
(§2) Appropriate amounts of test materials were weighed out into glass vials in their technical form to deliver either 140 or 280 g acid equivalent (ae)/ha. The samples were dissolved in 3 ml of Solvent 1. Solvent 1 is 97% acetone and 3% dimethyl sulfoxide and serves as a general-purpose solvent (GPS) for dissolving technical materials. […] The samples were then diluted to their final concentration using 17 ml of solvent 2 for a total of 20 ml of spray solution. Solvent 2 contains 41.58% GPS, 45.53% water, 11.88% isopropyl alcohol, 0.99% crop oil concentrate and 0.02% Trition X-155 surfactant. All percentages are listed on a volume basis. Dicamba diglycolamine was applied as a formulated herbicide, Clarity™ and diluted with solvent 2 to compare all materials in the same spray solution.
(§3) Herbicide applications were made to 3 to 4 replicates of each plant species at the 2 to 8 leaf stage, depending on the species. Treatments were applied with a research track-sprayer (Generation III Research Sprayer manufactured by DeVries Manufacturing in Hollandale, MN, USA) calibrated to deliver a spray volume of 187 L/ha. The track-sprayer was fitted with an 8003E nozzle from Spray Systems Company (North Avenue and Schmale Road, P.O. Box 7900, Wheaton, IL 60187), and used a spray pressure of 276 kPa pressure and a speed of 3.1 km/h. The nozzle height was 46 cm above the plant canopy. The experimental design used for the trials was a randomized complete block with 3 or 4 replications per treatment. After application, plants were placed on carts according to the randomization and returned to the greenhouse. Plants were sub-watered after treatment with Indianapolis city water or fertilized three times a week with a commercial fertilizer solution (Jack's Professional 15-5-15 4 Ca 2 Mg fertilizer (manufactured by JR PETERS INC., 6656 Grant Way, Allentown, PA 18106; www.jrpeters.com). Percent visual control assessments were made on a scale of 0 to 100% (where 0 was no control and 100 was complete plant death) at 7, 14, and 21 days after treatment.
(§4) In conformity with the methods outlined in Example 49, the effect of representative experimental compounds on the growth of Conyza canadensis (L.), (ERICA), common name, Horseweed, was determined at 2 different levels (respectively, 140 and 280 g acid equivalent (ae)/ha) of the experimental actives tested. Plants were treated with one of the compounds, a control plant was not treated. Twenty-one days after treatment, the plants were measured. The data is present as a percent reduction in plant size relative to the untreated control.

Kochia scoparia (KCHSC) = assay type: in vivo; conditions: KCHSC, postemergence; for pest or weed control at 140 g/ha / pest or weed control at 280 g/ha: Bassia scoparia, post-emergence, 504 h, read-out: Control/Injury; for pest or weed control at 280 g/ha: rate 280 g ae/ha
Protocol: as §1, §2, §3
as §4, with “Kochia scoparia (KCHSC)” for “Conyza canadensis (L.), (ERICA), common name, Horseweed,”

[2] = tested on: Ambrosia artemisiifolia (AMBEL); assay type: in vivo, Ambrosia artemisiifolia (common ragweed); conditions: post-emergence, 504 h, AMBEL, postemergence, read-out: Control/Injury; for pest or weed control at 280 g/ha: rate 280 g ae/ha; for pest or weed control at 140 g/ha: rate 140 g ae/ha
Protocol: as §1, §2, §3
as §4, with “Ambrosia artemisiifolia (AMBEL), (common ragweed),” for “Conyza canadensis (L.), (ERICA), common name, Horseweed,”

[3] = tested on: Amaranthus palmeri (AMAPA); assay type: in vivo, Amaranthus palmeri (Palmer amaranth); conditions: post-emergence, 504 h, R-AMAPA, postemergence, percent reduction vs untreated control, 21 days after treatment, read-out: Control/Injury; for pest or weed control at 140 g/ha: rate 140 g ae/ha; for pest or weed control at 280 g/ha: rate 280 g ae/ha
Protocol: as §1, §2, §3
as §4, with “Amaranthus palmeri (AMAPA),” for “Conyza canadensis (L.), (ERICA),”, “Palmer amaranth,” for “Horseweed,”

Amaranthus rudis (AMATA) = assay type: in vivo, Amaranthus rudis (tall water hemp); conditions: Amaranthus tuberculatus, post-emergence, 504 h, AMATA, postemergence, read-out: Control/Injury; for pest or weed control at 280 g/ha: rate 280 g ae/ha; for pest or weed control at 140 g/ha: rate 140 g ae/ha
Protocol: as §1, §2, §3
as §4, with “Amaranthus rudis (AMATA),” for “Conyza canadensis (L.), (ERICA),”, “name tall water hemp,” for “name, Horseweed,”

| Compound | pest or weed control at 140 g/ha [1] [%] | pest or weed control at 280 g/ha [1] [%] | pest or weed control at 140 g/ha (Kochia scoparia (KCHSC); rate 140 g ae/ha) [%] | pest or weed control at 280 g/ha (Kochia scoparia (KCHSC)) [%] | Control/Injury (Kochia scoparia (KCHSC); rate 140 g ae/ha) | pest or weed control at 280 g/ha [2] [%] | pest or weed control at 140 g/ha [3] [%] | pest or weed control at 280 g/ha [3] [%] | pest or weed control at 280 g/ha (Amaranthus rudis (AMATA)) [%] | pest or weed control at 140 g/ha [2] [%] | pest or weed control at 140 g/ha (Amaranthus rudis (AMATA)) [%] |
| --- | --- | --- | --- | --- | --- | --- | --- | --- | --- | --- | --- |
| COc1c(Cl)ccc(Cl)c1C(=O)O/N=C(\N)c1cccc(Cl)c1 [Compound A-12] | 72 | 87 | – | – | – | – | – | – | – | – | – |
| COc1c(Cl)ccc(Cl)c1C(=O)O/N=C(\N)c1cc(Cl)cc(Cl)c1 [Compound A-16] | 68 | 78 | – | – | – | – | – | – | – | – | – |
| COc1c(Cl)ccc(Cl)c1C(=O)O/N=C(\N)c1ccc2[nH]ccc2c1 [Compound A-28] | 70 | 83 | – | – | – | – | – | – | – | – | – |
| COc1c(Cl)ccc(Cl)c1C(=O)O/N=C(\N)c1ccc2[nH]cnc2c1 [Compound A-29] | 40 | 40 | – | – | – | – | – | – | – | – | – |
| COc1c(Cl)ccc(Cl)c1C(=O)O/N=C(\N)c1cccc2ccccc12 [Compound A-30] | 50 | 22 | – | – | – | – | – | – | – | – | – |
| COc1c(Cl)ccc(Cl)c1C(=O)OCc1ccccc1 [Compound A-44] | – | – | 60 | 90 | 60 | 80 | 80 | 85 | 60 | – | – |
| COc1c(Cl)ccc(Cl)c1C(=O)O/N=C(\C)c1cccnc1 [Compound A-47] | – | – | 98 | 100 | – | 100 | 90 | 95 | 75 | 85 | – |
| COc1c(Cl)ccc(Cl)c1C(=O)O/N=C/c1ccc(/C=N/OC(=O)c2c(Cl)ccc(Cl)c2OC)cc1 [Compound A-57] | – | – | 92 | 100 | – | 98 | – | 100 | – | 95 | 95 |
| COc1c(Cl)ccc(Cl)c1C(=O)Nc1ccncc1 [Compound A-61] | – | – | 98 | 99 | – | 98 | 85 | 100 | 90 | 99 | 85 |
| CCN(CC)OC(=O)c1c(Cl)ccc(Cl)c1OC [Compound A-64] | 3 | 10 | 0 | 3 | – | 12 | 3 | 20 | 2 | 5 | 3 |
| COc1c(Cl)ccc(Cl)c1C(=O)N1CCOCC1 [Compound A-65] | 8 | 28 | 28 | 37 | – | 55 | 33 | 33 | 23 | 40 | 15 |
| COc1c(Cl)ccc(Cl)c1C(=O)ONC(N)=O [Compound A-67] | 2 | 3 | 3 | 2 | – | 3 | 13 | 10 | 2 | 3 | 0 |
| COc1c(Cl)ccc(Cl)c1C(=O)ONC(C)=O [Compound A-68] | 8 | 23 | 58 | 82 | – | 58 | 42 | 52 | 40 | 55 | 23 |
| COc1c(Cl)ccc(Cl)c1C(=O)O/N=C/C(C)=O [Compound A-69] | 88 | 91 | 91 | 96 | – | 96 | 70 | 80 | 80 | 80 | 67 |
| COc1c(Cl)ccc(Cl)c1C(=O)O/N=C/c1ccccc1 [Compound A-70] | 87 | 93 | 73 | 88 | – | 97 | 72 | 78 | 77 | 78 | 52 |
| COc1c(Cl)ccc(Cl)c1C(=O)ON(C)C(=O)c1ccccc1 [Compound A-71] | 85 | 92 | 85 | 87 | – | 93 | 70 | 82 | 80 | 83 | 83 |
| COc1c(Cl)ccc(Cl)c1C(=O)C(Cl)(Cl)Cl [Compound A-96] | 0 | 0 | – | – | – | – | – | – | – | – | – |
